{"source": "patent US20030049249A1", "about": "(priority 2001, published 2003)", "key": {"[1]": {"tested_on": "N2a/Bos2 cells exposed to 0.1% scrapie-infected brain homogenate (RML prions)", "type": "cell-based, mouse"}, "[2]": {"tested_on": "chronically scrapie-infected N2a/Bos2 cells", "type": "cell-based, mouse"}}}
{"substance": "phosphatidylinositol-specific phospholipase C [PIPLC]", "values": [{"measurement": "effect on appearance of PrPSc", "setting": "[1]; PIPLC 0.25, 0.5, 1 and 2 units/ml before and/or during exposure of a susceptible cell to prions", "value": "prevents appearance of PrPSc"}, {"measurement": "concentration that sufficed to prevent appearance of PrPSc", "setting": "[1]; added 2 h before and during 3-day exposure to 0.1% scrapie-infected brain homogenate, cell blot after 14 days in absence of PIPLC", "value": 0.25, "unit": "units/ml"}, {"measurement": "effect on PrPSc in chronically infected cells", "setting": "[2]", "value": "causes rapid loss of PrPSc"}]}
